Data from patent US7786141B2 (Vertex Pharmaceuticals Incorporated, priority 2004, dated 2010).

What was measured:
M4 muscarinic receptor = target: T1, M4 muscarinic receptor (Homo sapiens, UniProt P08173); experiment: Functional mobilization of intracellular calcium (FLIPR) in M4-CHO cells; assay type: cell-based; conditions: M4 receptor, calcium mobilization; for Emax: read-out: M4 Efficacy
T1 construct: expressed in transfected cells; host or cells: CHO (M4-CHO)
T1 sequence (P08173 1-479): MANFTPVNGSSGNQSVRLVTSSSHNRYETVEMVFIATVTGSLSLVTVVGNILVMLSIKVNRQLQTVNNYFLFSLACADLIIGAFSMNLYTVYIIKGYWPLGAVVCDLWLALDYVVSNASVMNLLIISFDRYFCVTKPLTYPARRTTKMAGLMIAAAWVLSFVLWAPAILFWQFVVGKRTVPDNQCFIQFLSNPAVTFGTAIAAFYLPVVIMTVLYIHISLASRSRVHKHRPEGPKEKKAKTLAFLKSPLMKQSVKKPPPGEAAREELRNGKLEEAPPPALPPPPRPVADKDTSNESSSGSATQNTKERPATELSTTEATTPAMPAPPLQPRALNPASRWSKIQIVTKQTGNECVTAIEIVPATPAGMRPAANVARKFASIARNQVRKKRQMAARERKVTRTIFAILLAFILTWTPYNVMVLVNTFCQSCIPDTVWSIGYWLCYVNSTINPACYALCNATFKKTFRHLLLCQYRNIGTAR
How it was run: (§1)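 FLIPR Ca2+ read, ex 488/em 540 nm, 60 s. Recombinant CHO lines (M1 or M4), dye-loaded Fluo-3 AM 60-90 min at 37° C, probenecid 1 mM, pH 7.4. Agonist: compound alone; inhibition: 15 min compound pre-incubation, then carbachol at EC80 for that subtype.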

M1 muscarinic receptor = target: T2, M1 muscarinic receptor (Homo sapiens, UniProt P11229); experiment: Functional mobilization of intracellular calcium (FLIPR) in M1-CHO cells; assay type: cell-based; conditions: M1 receptor, calcium mobilization; for Emax: read-out: M1 Efficacy
T2 construct: expressed in transfected cells; host or cells: CHO (M1-CHO)
T2 sequence (P11229 1-460): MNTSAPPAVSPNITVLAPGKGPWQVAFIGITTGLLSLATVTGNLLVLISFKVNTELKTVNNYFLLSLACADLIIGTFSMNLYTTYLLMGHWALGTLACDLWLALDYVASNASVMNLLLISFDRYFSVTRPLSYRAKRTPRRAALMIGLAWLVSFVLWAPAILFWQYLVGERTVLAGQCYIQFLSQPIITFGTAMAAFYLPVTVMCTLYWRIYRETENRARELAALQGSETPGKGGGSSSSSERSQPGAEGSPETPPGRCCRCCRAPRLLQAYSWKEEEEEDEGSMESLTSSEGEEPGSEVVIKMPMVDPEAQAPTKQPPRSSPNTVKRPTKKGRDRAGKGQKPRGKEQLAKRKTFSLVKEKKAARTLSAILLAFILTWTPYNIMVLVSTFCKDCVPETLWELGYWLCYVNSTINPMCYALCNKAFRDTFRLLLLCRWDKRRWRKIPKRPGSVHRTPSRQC
How it was run: as §1

| SMILES | M4 Activity (M4 muscarinic receptor) | M4 Efficacy (M4 muscarinic receptor) | M1 Activity (M1 muscarinic receptor) | M1 Efficacy (M1 muscarinic receptor) | Emax (M4 muscarinic receptor) | Emax (M1 muscarinic receptor) |
| --- | --- | --- | --- | --- | --- | --- |
| CC(=O)N1CC2(CCN(CC3CCN(C(=O)O[C@@H]4CCOC4)CC3)CC2)c2cc(F)ccc21 [compound 82] | xx (activity was measured to be between 0.1 μM and 1.0 μM) | xx (efficacy was calculated to be between 85% and 65%) | xxx (activity was measured to be less than 0.1 μM) | xx (efficacy was calculated to be between 85% and 65%) |  |  |
| CCOC(=O)N1CCC(N2CCC3(CC2)CN(C(C)=O)c2ccc(-c4cccc(F)c4)cc23)CC1 [compound 84] | xx (activity was measured to be between 0.1 μM and 1.0 μM) |  | xxx (activity was measured to be less than 0.1 μM) |  | 65 to 85% | 65 to 85% |
| Clc1ccc2c(c1)C1(CCN(C3CC4CCC(C4)C3)CC1)CN2 (stereo not drawn) [compound 85] | xx (activity was measured to be between 0.1 μM and 1.0 μM) |  | xxx (activity was measured to be less than 0.1 μM) |  | 65 to 85% | 65 to 85% |
| CCON=C1CCC(N2CCC3(CC2)CN(C(C)=O)c2ccc(F)cc23)CC1 (stereo not drawn) [compound 86] | x (activity was measured to be greater than 1.0 μM) |  | xxx (activity was measured to be less than 0.1 μM) |  | < 65% | 65 to 85% |
| O=C(C1CC1)N1CC2(CCN(C3CC4CCC(C3)N4C(=O)O[C@@H]3CCOC3)CC2)c2cc(F)ccc21 (stereo partly drawn) [compound 87] | x (activity was measured to be greater than 1.0 μM) |  | xxx (activity was measured to be less than 0.1 μM) |  | < 65% | 65 to 85% |
| CCOC(=O)N1C2CCC1CC(N1CCC3(CC1)CN(C(=O)c1ccno1)c1ccc(F)cc13)C2 (stereo not drawn) [compound 88] | xx (activity was measured to be between 0.1 μM and 1.0 μM) |  | xxx (activity was measured to be less than 0.1 μM) |  | < 65% | 65 to 85% |
| CCOC(=O)N1C2CCC1CC(N1CCC3(CC1)CN(C(=O)OCCOC)c1ccc(F)cc13)C2 (stereo not drawn) [compound 90] | x (activity was measured to be greater than 1.0 μM) |  | xx (activity was measured to be between 0.1 μM and 1.0 μM) |  | < 65% | 65 to 85% |
| CCCOC(=O)N1CCC(N2CCC3(CC2)CN(C(=O)N(C)C)c2ccc(F)cc23)CC1 [compound 91] | xx (activity was measured to be between 0.1 μM and 1.0 μM) |  | xxx (activity was measured to be less than 0.1 μM) |  | < 65% | 65 to 85% |
| CCOC(=O)N1CCC(N2CCC3(CC2)CN(C(C)=O)c2ccc(C)cc23)CC1 [compound 92] | xx (activity was measured to be between 0.1 μM and 1.0 μM) |  | xxx (activity was measured to be less than 0.1 μM) |  | < 65% | 65 to 85% |
| O=C(O[C@@H]1CCOC1)N1CC2(CCN(C3CC4CCC(C3)N4C(=O)O[C@H]3CCOC3)CC2)c2cc(F)ccc21 (stereo partly drawn) [compound 93] | xx (activity was measured to be between 0.1 μM and 1.0 μM) | x (efficacy was calculated to be less than 65%) | xx (activity was measured to be between 0.1 μM and 1.0 μM) | x (efficacy was calculated to be less than 65%) |  |  |
| CC(=O)N1CC2(CCN(C3CC4CCC(C3)N4C(=O)OC(C)C)CC2)c2cc(F)ccc21 (stereo not drawn) [compound 94] | xx (activity was measured to be between 0.1 μM and 1.0 μM) |  | xxx (activity was measured to be less than 0.1 μM) |  | < 65% | < 65% |
| COCCOC(=O)N1C2CCC1CC(N1CCC3(CCc4ccccc43)CC1)C2 (stereo not drawn) [compound 95] | xx (activity was measured to be between 0.1 μM and 1.0 μM) |  | xxx (activity was measured to be less than 0.1 μM) |  | < 65% | 65 to 85% |
| COC(=O)N1CC2(CCN(C3CC4CCC(C3)N4C(=O)O[C@H]3CCOC3)CC2)c2cc(F)ccc21 (stereo partly drawn) [compound 96] | x (activity was measured to be greater than 1.0 μM) |  | xx (activity was measured to be between 0.1 μM and 1.0 μM) |  | < 65% | 65 to 85% |
| COC(=O)N1CC2(CCN(C3CC4CCC(C3)N4C(=O)OC(C)C)CC2)c2cc(F)ccc21 (stereo not drawn) [compound 97] | x (activity was measured to be greater than 1.0 μM) |  | xxx (activity was measured to be less than 0.1 μM) |  | < 65% | 65 to 85% |
| CCCOC(=O)N1CCC(CN2CCC3(CC2)CN(C(C)=O)c2ccc(F)cc23)CC1 [compound 98] | xx (activity was measured to be between 0.1 μM and 1.0 μM) |  | xxx (activity was measured to be less than 0.1 μM) |  | < 65% | 65 to 85% |
| CCOC(=O)N1C2CCC1CC(N1CCC3(CC1)COc1ccc(Cl)cc13)C2 (stereo not drawn) [compound 99] | x (activity was measured to be greater than 1.0 μM) |  | xxx (activity was measured to be less than 0.1 μM) |  | < 65% | < 65% |
| COc1ccc(OC(=O)N2C3CCC2CC(N2CCC4(CC2)COc2ccc(F)cc24)C3)cc1 (stereo not drawn) [compound 100] | xx (activity was measured to be between 0.1 μM and 1.0 μM) |  | xxx (activity was measured to be less than 0.1 μM) |  | 65 to 85% | 65 to 85% |
| CC#CCOC(=O)N1CCC(N2CCC3(CC2)CN(C(C)=O)c2ccc(F)cc23)CC1 [compound 102] | xx (activity was measured to be between 0.1 μM and 1.0 μM) |  | xxx (activity was measured to be less than 0.1 μM) |  | 65 to 85% | 65 to 85% |
| CCOC(=O)N1C2CCC1CC(N1CCC3(CC1)CN(S(C)(=O)=O)c1ccc(F)cc13)C2 (stereo not drawn) [compound 103] | xx (activity was measured to be between 0.1 μM and 1.0 μM) |  | xxx (activity was measured to be less than 0.1 μM) |  | < 65% | 65 to 85% |
| O=C1CC2(CCN(C[C@H]3C[C@H]4C=C[C@H]3C4)CC2)c2ccccc21 [compound 104] | x (activity was measured to be greater than 1.0 μM) |  | xxx (activity was measured to be less than 0.1 μM) |  | < 65% | 65 to 85% |
| CCOC(=O)N1CCC(N2CCC3(CC2)CN(C(C)=O)c2ccc(-c4ccncc4)cc23)CC1 [compound 105] | x (activity was measured to be greater than 1.0 μM) |  | xx (activity was measured to be between 0.1 μM and 1.0 μM) |  | < 65% | < 65% |
| COCCOC(=O)N1C2CCC1CC(N1CCC3(CC1)CN(C(=O)OC1CCC1)c1ccc(F)cc13)C2 (stereo not drawn) [compound 106] | xx (activity was measured to be between 0.1 μM and 1.0 μM) |  | xxx (activity was measured to be less than 0.1 μM) |  | < 65% | 65 to 85% |
| CCOC(=O)N1CCC(CN2CCC3(CC2)COc2ccc(F)cc23)CC1 [compound 107] | x (activity was measured to be greater than 1.0 μM) |  | xxx (activity was measured to be less than 0.1 μM) |  | < 65% | 65 to 85% |
| CC(C)OC(=O)N1C2CCC1CC(N1CCC3(CC1)CN(C(=O)N(C)C)c1ccc(F)cc13)C2 (stereo not drawn) [compound 108] | xx (activity was measured to be between 0.1 μM and 1.0 μM) |  | xxx (activity was measured to be less than 0.1 μM) |  | < 65% | 65 to 85% |
| CCOC(=O)N1C2CCC1CC(N1CCC3(CC1)CNc1ccc(C)cc13)C2 (stereo not drawn) [compound 109] | xx (activity was measured to be between 0.1 μM and 1.0 μM) |  | xxx (activity was measured to be less than 0.1 μM) |  | < 65% | 65 to 85% |
| c1ccc2c(c1)NCC21CCN(CC2CC3CCC2C3)CC1 (stereo not drawn) [compound 110] | xx (activity was measured to be between 0.1 μM and 1.0 μM) |  | xxx (activity was measured to be less than 0.1 μM) |  | < 65% | < 65% |
| Fc1ccc2c(c1)C1(CCN(C3CCC4CCC3C4)CC1)CN2 (stereo not drawn) [compound 111] | xx (activity was measured to be between 0.1 μM and 1.0 μM) |  | xxx (activity was measured to be less than 0.1 μM) |  | < 65% | 65 to 85% |
